From patent US12528826B2, “[1,4]oxazepino[2,3-c]quinolinone derivatives as BCL6 inhibitors” (Cancer Research Technology Limited, priority 2019, dated 2026) come the findings set out here.

In assay [1] the test system is GC B cells and non-GC B cells in spleen cell cultures. The assay can be described thus: Mouse splenocyte flow cytometry immunology experiments. The format is cell-based. On the procedure: Male C57BL/6 mice were immunised in both flanks subcutaneously with CFA (100 μl of 4 mg/ml CFA). On day 8 the animals were terminated, spleens harvested and processed to single cell suspensions.
Splenocytes were resuspended in complete media (RPMI 1640+10% foetal calf serum, supplemented with 4 mM L-glutamine, 100 U/ml-100 μg/ml) penicillin/streptomycin and 50 μM B-mercaptoethanol (Gibco)). The cells were activated for 48 hours with 2 μg/ml αCD40 (ThermoFisher)+[…] IL-4 (Bio-techne) at 37° C. in a humidified CO2 incubator. Example 4b was added at the same time as activation in an 8-point dose titration. Following the culture period, cells were collected, washed with PBS (Gibco) and selected wells were counted using a LUNA™ Counter (Logos Biosystems).
Harvested cells were washed in PBS (Gibco) and stained with Invitrogen™ eBioscience™ Fixable Viability Dye eFluor 780 (Fisher scientific), then FcR blocked (Miltenyi Biotec) and stained with surface receptor antibodies (see Table 3 below). Cells were then washed in flow cytometry buffer (PBS supplemented with 1% BSA and 0.05% azide) and the secondary streptavidin was added. Cells were then washed, fixed and permeabilized in Transcription factor staining buffer (Fisher scientific); according to the manufacturer's instructions. Intracellular antibodies were then added to the samples. Following final washes, cells were fixed in 1% PFA and acquired on a BD LSR Fortessa™ (BD Bioscience). All analysis was carried out using FlowJo software v10.
In order to test the hypothesis that degradation or inhibition of Bcl6 may be able to modulate primary cells of the immune system, resulting in a decrease in their potential to generate autoantibodies, the above experiment was performed. Mice were immunised in order to drive the generation of germinal centre (GC) B cells. Spleens were then cultured in the presence or absence of a Bcl6 inhibitor (Example 4b) for 48 hours and non-GC B cells or GC B cells were identified using flow cytometry (FIG. 1).
(In general: A flow cytometer gives signals particle by particle.)

The target in assay [2] is T1, Trx-6×His-BCL6 (human BCL6 BTB domain covering amino-acid sequence 5-129) (Homo sapiens, UniProt P41182).
T1 construct: made in house
Put plainly: HTRF assay (BCL6 / BCOR peptide). Format: binding. The following applies: 1 nM Trx-6×His-BCL6, 300 nM BCOR-AF633 peptide, 2 hours incubation at room temperature; read-out: HTRF avg pIC50 (converted). On the procedure:
After 2 hours incubation at room temperature the plate was read on a Pherastar FSX (BMG Labtech) plate reader equipped with 337 nm laser excitation filter, a first emission filter at 620 nm and a second emission filter at 665 nm. The % inhibition at each concentration was calculated by normalising FRET ratio to the appropriate high (DMSO with all reagents) and low (DMSO without BCL6) controls.

As to `Cn1c(=O)c2c(c3cc(Nc4ccnc(F)c4Cl)ccc31)N[C@@H](C1CC1)C(F)(F)CO2` [Example 4b, (S)-10-((3-chloro-2-fluoropyridin-4-yl)amino)-2-cyclopropyl-3,3-difluoro-7-methyl-1,2,3,4-tetrahydro-[1,4]oxazepino[2,3-c]quinolin-6(7H)-one], in assay [1] (spleen cell cultures, 48 hours, at 10 μM (FIG. 4)), the “numbers of GC B cells as determined by expression of the lineage markers GL7 and CD95” value is reported as “decreased”. In assay [1] (splenocytes of CFA-immunised C57BL/6 mice, activated 48 hours with αCD40 + IL-4, various concentrations (FIG. 2)), the “BCL6 expression in non-GC B cells (GeoMFI, flow cytometry)” value is “did not result in a reduction”. Further, the “Blimp expression by GC B cells (GeoMFI, flow cytometry)” value in assay [1] (splenocytes of CFA-immunised C57BL/6 mice, activated 48 hours with αCD40 + IL-4, various concentrations (FIG. 3)) is “increase”. For the same compound, in assay [2], the IC50 is 6.31 nM. On to `CC1CC(CC(=O)N2CCC2)CN(c2ncc(Cl)c(Nc3ccc4c(c3)c3c(c(=O)n4C)OCC(F)(F)[C@H](C4CC4)N3)n2)C1` (single isomer, unassigned) [Example 12x16b], for which, in assay [2], the IC50 was 5.37 nM. The same measure, in the same setting: for `COC[C@@H]1CCCN1c1ncc(Cl)c(Nc2ccc3c(c2)c2c(c(=O)n3C)OCC(F)(F)[C@H](C3CC3)N2)n1` [Example 12x45a, (S)-10-((5-chloro-2-((S)-2-(methoxymethyl)pyrrolidin-1-yl)pyrimidin-4-yl)amino)-2-cyclopropyl-3,3-difluoro-7-methyl-1,2,3,4-tetrahydro-[1,4]oxazepino[2,3-c]quinolin-6(7H)-one] the value was 11.2 nM; for `C#CC1CCCN(c2ncc(Cl)c(Nc3ccc4c(c3)c3c(c(=O)n4C)OCC(F)(F)[C@H](C4CC4)N3)n2)C1` (stereo partly drawn) [Example 12x22, (2S)-10-((5-chloro-2-(3-ethynylpiperidin-1-yl)pyrimidin-4-yl)amino)-2-cyclopropyl-3,3-difluoro-7-methyl-1,2,3,4-tetrahydro-[1,4]oxazepino[2,3-c]quinolin-6(7H)-one], 22.9 nM; for `CC1CCN(c2ncc(Cl)c(Nc3ccc4c(c3)c3c(c(=O)n4C)OCC(F)(F)[C@H](C4CC4)N3)n2)C1CO` (stereo partly drawn) [Example 12x49, (2S)-10-((5-chloro-2-(2-(hydroxymethyl)-3-methylpyrrolidin-1-yl)pyrimidin-4-yl)amino)-2-cyclopropyl-3,3-difluoro-7-methyl-1,2,3,4-tetrahydro-[1,4]oxazepino[2,3-c]quinolin-6(7H)-one], 6.31 nM. Still for that read-out and setting: for `Cn1c(=O)c2c(c3cc(Nc4nc(N5CCC(F)(F)CC5CO)ncc4Cl)ccc31)N[C@@H](C1CC1)C(F)(F)CO2` (mixture of isomers) [Example 12x50, (2S)-10-((5-chloro-2-(4,4-difluoro-2-(hydroxymethyl)piperidin-1-yl)pyrimidin-4-yl)amino)-2-cyclopropyl-3,3-difluoro-7-methyl-1,2,3,4-tetrahydro-[1,4]oxazepino[2,3-c]quinolin-6(7H)-one] the value was 7.08 nM; for `Cn1c(=O)c2c(c3cc(Nc4nc(N5CCC(F)(F)C(C(=O)N6CC(F)(F)C6)C5)ncc4Cl)ccc31)N[C@@H](C1CC1)C(F)(F)CO2` (mixture of isomers) [Example 12x19, (2S)-10-((5-chloro-2-(3-(3,3-difluoroazetidine-1-carbonyl)-4,4-difluoropiperidin-1-yl)pyrimidin-4-yl)amino)-2-cyclopropyl-3,3-difluoro-7-methyl-1,2,3,4-tetrahydro-[1,4]oxazepino[2,3-c]quinolin-6(7H)-one], 5.89 nM; for `C[C@H]1C[C@@H](F)CN(c2ncc(Cl)c(Nc3ccc4c(c3)c3c(c(=O)n4C)OCC(F)(F)[C@H](C4CC4)N3)n2)C1` [Example 12x03, (S)-10-((5-chloro-2-((3R,5S)-3-fluoro-5-methylpiperidin-1-yl)pyrimidin-4-yl)amino)-2-cyclopropyl-3,3-difluoro-7-methyl-1,2,3,4-tetrahydro-[1,4]oxazepino[2,3-c]quinolin-6(7H)-one], 15.5 nM.

Take `CC1CCN(c2ncc(Cl)c(Nc3ccc4c(c3)c3c(c(=O)n4C)OCC(F)(F)[C@H](C4CC4)N3)n2)CC1C` (mixture of isomers) [Example 12x07, (2S)-10-((5-chloro-2-(3,4-dimethylpiperidin-1-yl)pyrimidin-4-yl)amino)-2-cyclopropyl-3,3-difluoro-7-methyl-1,2,3,4-tetrahydro-[1,4]oxazepino[2,3-c]quinolin-6(7H)-one]: the IC50 in assay [2] is 46.8 nM. On the same count and under the same terms, the value for `Cn1c(=O)c2c(c3cc(Nc4nc(N5CCCC6CC65)ncc4Cl)ccc31)N[C@@H](C1CC1)C(F)(F)CO2` (stereo partly drawn) [Example 12x25, (2S)-10-((2-(2-azabicyclo[4.1.0]heptan-2-yl)-5-chloropyrimidin-4-yl)amino)-2-cyclopropyl-3,3-difluoro-7-methyl-1,2,3,4-tetrahydro-[1,4]oxazepino[2,3-c]quinolin-6(7H)-one] was 15.8 nM.
